Source: patent US9649317B2, “Heterocyclic compounds and their use for the treatment of neurodegenerative tauopathies” (The Trustees of The University of Pennsylvania, priority 2012, dated 2017)
Entries after “also recorded” stand apart in the source; their conditions may differ. Where two headings read alike, the source gives them in different places.

Experiments:
[1] = test system: acetyl-tubulin (AcTub) in HEK/QBI 293 cells; test: Microtubule stabilization assay: acetyl-tubulin (AcTub) ELISA after compound treatment; assay type: cell-based; conditions: for AcTub elevation compared with epoD: at 100 nM (FIG. 1); for change in acetyl-tubulin (AcTub), in words: relative to vehicle-treated cells (FIG. 1, Tables 5 and 6)
Excerpt: (§1) The MT-stabilizing properties of triazolopyrimidines was investigated in a cell-free MT-polymerization assay, as well in a cell-based assay (HEK/QBI 293 cells) that measures changes in acetyl-tubulin (AcTub), a biomarker of stable MTs. (Laferriere, N.; MacRae, T.; Brown, D. Tubulin synthesis and assembly in differentiating neurons. Biochemistry and Cell Biology 1997, 75, 103-117; Black, M.; Baas, P.; Humphries, S. Dynamics of alpha-tubulin deacetylation in intact neurons. J Neurosci 1989, 9, 358).
as §1, with “properties of additional triazolopyrimidines, phenylpyrimidines, and pyridazines was investigated” for “properties of triazolopyrimidines was investigated”, “well in the aforementioned cell-based assay” for “well in a cell-based assay”, “of stable MTs (Laferriere, N.;” for “of stable MTs. (Laferriere, N.;”
The HEK293 cell subclone, QBI293, was maintained in DMEM supplemented with 10% fetal calf or bovine serum, 1% penicillin/streptomycin antibiotic solution and 1% glutamine at 37° C. in 5% CO2. Cells were plated into 6-well plates at a density of 800,000 cells/well. […] Test compounds were added at multiple concentrations to the test wells and incubated for 4 h. Subsequently, the media was removed and the cells were washed with 1 ml of ice-cold phosphate-buffered saline (PBS). After removal of PBS, 0.2 ml of ice-cold RIPA (0.5% sodium deoxycholate, 0.1% SDS, 1% NP-40, 5 mM EDTA, pH 8.0) containing protease inhibitor mix (1 μg/ml each of pepstatin, leupeptin, TLCK, TPCK and trypsin inhibitor), 1 mM PMSF and 1 μM trichostatin A was added to the wells. The wells were then scraped using a cell scraper and pipetted into 1.5 ml microfuge tubes. The tubes were sonicated with a handheld sonicator at 20× on a power setting of 2, followed by centrifugation for 30 min at 15,000 rpm at 4° C. Supernatants were removed and quantified for protein concentration and the acetyl-tubulin levels were determined using an ELISA as described.
384-well plates were coated with 12G10α-tubulin antibody (Developmental Studies Hybridoma Bank at the University of Iowa; 10 μg/ml) in 30 μl of cold 0.1 M bicarbonate buffer. After overnight incubation at 4° C., the plates were washed with cold PBS, followed by the addition of Block-Ace solution and overnight incubation at 4° C. The blocking solution was removed and 10 μl of EC buffer (0.02 M sodium phosphate, pH 7.0, 2 mM EDTA, 0.4 M NaCl, 0.2% bovine serum albumin, 0.05% CHAPS, 0.4% BlockAce and 0.05% NaN3) was added to each well. Cell culture supernatants were diluted in EC buffer to final protein concentrations of 9, 3, 1.5 and 0.5 μg/30 μl, and 30 μl of each were added to wells in duplicate and plates were subsequently sealed. After overnight incubation at 4° C., the plates were aspirated and washed with cold PBS containing 0.05% Tween-20 and 0.05% thimerisol (PBS-Tween buffer), followed by addition of 30 μl/well of HRP-conjugated acetyl-tubulin antibody (6-11B-1 antibody from Sigma-Aldrich) that was prepared with a Peroxidase Labeling Kit following the manufacturer's instructions that was subsequently diluted 1:1000 in C buffer (0.02 M sodium phosphate, pH 7.0, 2 mM EDTA, 0.4 M NaCl, 1% bovine serum albumin and 0.05% thimerisol). The plates were incubated at room temperature for 4 h on a platform rocker, followed by washing with cold PBS-Tween buffer. Peroxidase substrate solution (30 μl) was added and the reaction was quenched after 5-10 min by addition of 30 μl of 10% phosphoric acid. Plates were read on a SpectraMax M5 plate reader at 450 nm. Because an acetyl-tubulin standard is not available, all data were normalized to a control treatment condition (e.g., no compound addition).

[2] = test system: AcTub-positive MTs in HEK/QBI293 cells; test: Acetyl tubulin immunofluorescence; assay type: cell-based; conditions: 4 h incubation
Description: The HEK293 cell subclone, QBI293, was plated onto poly-D-lysine-coated glass coverslips at 50,000 cells/ml in DMEM supplemented with 10% fetal calf or bovine serum, 1% penicillin/streptomycin antibiotic solution and 1% glutamine and maintained overnight at 37° C. in 5% CO2. The next day, cells were left untreated or were treated with 100 nM epothilone D, 100 nM CNDR-51533 or 1 μM colchicine. After an additional 4 h of incubation at 37° C. in 5% CO2, cells were washed twice with PBS, and then fixed for 15 min in PBS containing 4% paraformaldehyde. The cells were again washed twice with PBS, and permeabilized with 0.1% Triton X-100 in PBS for 15 min. Following the Triton X-100 treatment, the cells were washed twice in PBS, and treated with PBS containing 3% bovine serum albumin for 1 h. Acetyl-tubulin antibody was subsequently added (1:1000 dilution) and incubated for 1 h. Cells were then washed cells 3×5 min with 0.1% Triton X-100 in PBS, and secondary antibody (goat-anti-mouse labeled with Alexa fluor 488 at 1:1000) was added and allowed to incubate for 1 h. […] Finally, the cells were washed once with PBS, followed by H2O, and the cover slips were mounted onto slides with Fluoromount G. Images were acquired on a microscope equipped for fluorescence detection. […]

[3] = test system: detyrosinated α-tubulin (GluTub); test: Detyrosinated α-tubulin (GluTub) in the cell-based studies; conditions: data not shown
[4] = mouse, in vivo; cited from earlier work
[5] = Determination of plasma and brain compound concentrations; assay type: in vivo; conditions: mouse, 1 hour after a 5 mg/kg intraperitoneal injection
Description: For utility in neurodegenerative diseases, MT-stabilizing compounds must cross the blood-brain barrier (BBB) and enter the brain. As summarized in Table 7, a number of examples show concentrations in the brain that exceed 0.5 μM an hour after administration of a 5 mg/kg dose, with brain-to-plasma concentration ratios of ˜0.3 or higher.
Mouse brains were homogenized in 10 mM ammonium acetate, pH 5.7 (1:2; w/v) using a handheld sonic homogenizer. Mouse plasma was obtained from blood that was collected into a 1.5 ml tube containing 0.5M EDTA solution and which was centrifuged for 10 minutes at 4500 g at 4° C. Aliquots (50 μl) of brain homogenates (50% w/v in 100 mM NH4OAC pH 5.75) or plasma were mixed with 0.2 ml of acetonitrile, centrifuged at 15,000 g, and the resulting supernatant was used for subsequent LC-MS/MS analysis. The LC-MS/MS system was comprised of an Aquity UPLC and a TQ MS that was controlled using MassLynx software (Waters Corporation, Milford, Mass., USA). Compounds were detected using multiple reaction monitoring (MRM) of their specific collision-induced ion transitions. Samples were separated on an Aquity BEH C18 column (1.7 μm, 2.1×50 mm) at 35° C. Operation was in positive electrospray ionization mode, with mobile phase A of 0.1% (v/v) formic acid, and B of acetonitrile with 0.1% (v/v) formic acid. Injections of 5 μl were separated at a flow rate of 0.6 mL/min using a gradient from 5% to 95% B over two minutes, followed by wash and re-equilibration steps. The MS was operated with a desolvation temperature of 450° C. and a source temperature of 150° C. Desolvation and source nitrogen gas flows were 900 L/hr and 50 L/hr, respectively. Source and MS/MS voltages were optimized for each compound using the MassLynx auto tune utility. To account for possible matrix effects on analytes, standard curves were generated for each compound from brain homogenate and plasma samples that had compound added at 24, 240, 2400 and 24000 nM. The standard curve samples were extracted and analyzed in an identical fashion as the corresponding tissue-derived samples, and peak areas were plotted against concentration and a linear regression curve was used to obtain estimated concentrations of the tissue-derived samples using the peak areas. In all cases, the tissue-derived sample peak areas fell within the linear portion of standard curves that were prepared and analyzed concurrently with the samples.

[6] = test system: brain α-tubulin that is acetylated (AcTub); test: Determination of brain acetyl-tubulin levels; assay type: in vivo, CD1 mice; conditions: wild-type mice, once-daily 1 mg/kg dose, 3 days (FIG. 14)
[7] = brain, ip, read-out: Brain nM (SD)
[8] = plasma, ip, read-out: Plasma nM (SD)

Molecule	change in acetyl-tubulin (AcTub), in words [1]	change in detyrosinated α-tubulin (GluTub) [3]	concentration at 1 h [5, 7] [nM]	concentration at 1 h [5, 8] [nM]	Brain/Plasma [5]	further results
CNCCCOc1cc(F)c(-c2c(Cl)nc3ncnn3c2N[C@@H](C)C(F)(F)F)c(F)c1 [CNDR-51533, (S)-5-Chloro-6-(2,6-difluoro-4-(3-(methylamino)propoxy)phenyl)-N-(1,1,1-trifluoropropan-2-yl)-[1,2,4]triazolo[1,5-a]pyrimidin-7-amine, reference compound]	dose-dependent elevation in AcTub	significant increases of detyrosinated α-tubulin (GluTub)	–	–	–	AcTub elevation compared with epoD [1]: significantly more effective than epoD; AcTub immunofluorescence, MT structure ([2]; 100 nM, relative to control cells): large increase in highly organized, AcTub-positive MTs; crossing of the blood-brain barrier (BBB), previously described agents [4]: do not cross the BBB
C[C@H](Nc1nc(-c2ccccn2)nc(Cl)c1-c1c(F)cc(OCCCN(C)C)cc1F)C(F)(F)F [CNDR-51561, (S)-6-Chloro-5-(4-(3-(dimethylamino)propoxy)-2,6-difluorophenyl)-2-(pyridin-2-yl)-N-(1,1,1-trifluoropropan-2-yl)pyrimidin-4-amine]	–	–	701	2120	–	Kp at 1 h ([5]; brain/plasma, ip): 0.33
Fc1cc(F)c(-c2c(Cl)nc3ncnn3c2NCC(F)(F)F)c(F)c1 [CNDR-51539, 5-Chloro-N-(2,2,2-trifluoroethyl)-6-(2,4,6-trifluorophenyl)-[1,2,4]triazolo[1,5-a]pyrimidin-7-amine]	dose-dependent elevation in AcTub	significant increases of detyrosinated α-tubulin (GluTub)	–	–	–	–
C[C@H](Nc1c(-c2c(F)cc(OCCCN(C)C)cc2F)c(Cl)nc2ncnn12)C(F)(F)F [CNDR-51555, (S)-5-Chloro-6-(4-(3-(dimethylamino)propoxy)-2,6-difluorophenyl)-N-(1,1,1-trifluoropropan-2-yl)-[1,2,4]triazolo[1,5-a]pyrimidin-7-amine]	–	–	1350	4930	0.27	–
CNCCCOc1cc(F)c(-c2c(Cl)nc3ncnn3c2NCC(F)(F)F)c(F)c1 [CNDR-51534, 5-Chloro-6-(2,6-difluoro-4-(3-(methylamino)propoxy)phenyl)-N-(2,2,2-trifluoroethyl)-[1,2,4]triazolo[1,5-a]pyrimidin-7-amine]	dose-dependent elevation in AcTub	significant increases of detyrosinated α-tubulin (GluTub)	–	–	–	AcTub elevation compared with epoD [1]: significantly more effective than epoD
C[C@H](Nc1nc(-c2cnccn2)nc(Cl)c1-c1c(F)cc(F)cc1F)C(F)(F)F [CNDR-51549, (S)-6-chloro-2-(pyrazin-2-yl)-5-(2,4,6-trifluorophenyl)-N-(1,1,1-trifluoropropan-2-yl)pyrimidin-4-amine]	–	–	2870	4950	0.58	AcTub levels in the brain [6]: increase of AcTub levels in the brains; also recorded: increase in the fraction of brain α-tubulin that is acetylated
COc1cc2c(c(OC)c1OC)-c1ccc(OC)c(=O)cc1[C@@H](NC(C)=O)CC2 [colchicine]	–	–	–	–	–	AcTub immunofluorescence staining ([2]; 1 μM, data not shown): significant loss of AcTub staining
C[C@H](Nc1nc(-c2ccccn2)nc(Cl)c1-c1c(F)cc(F)cc1F)C(F)(F)F [CNDR-51552, (S)-6-chloro-2-(pyridin-2-yl)-5-(2,4,6-trifluorophenyl)-N-(1,1,1-trifluoropropan-2-yl)pyrimidin-4-amine]	–	–	1480	4320	0.34	–
(S)-6-Chloro-5-(2,6-difluoro-4-(3-(methylamino)propoxy)phenyl)-2-(pyridin-2-yl)-N-(1,1,1-trifluoropropan-2-yl)pyrimidin-4-amine [CNDR-51562]	–	–	–	–	–	dose of maximal effect (AcTub increase) ([1]; 4 h treatment): 0.1 µM; Fold-Increase in AcTub ([1]; 4 h treatment, at the dose of maximal effect, relative to control): 6.2 fold
